Source: patent US20050113450A1, “Antibacterial agents” (priority 2002, published 2005)
In brackets after ≈: the same amount, converted by molar mass.

Test system: SA 9218
Experiment: MIC by standard agar dilution method
Assay type: cell-based
Settings: Mueller Hinton agar, 10^4 to 10^5 cells per spot, incubated overnight at 35° C., lowest concentration that inhibits visible growth
Outline: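 Agar dilution: two-fold compound dilutions mixed into molten Mueller Hinton agar, spots of ~10^4–10^5 cells from 0.5 McFarland suspension diluted 1:20 in TSB. Incubated overnight at 35 °C; MIC is lowest concentration inhibiting visible growth.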

Cc1cccc(C(=O)c2cccc(C(=O)Nc3ccc(Cl)cc3C(=O)O)c2)c1 [PHA-656894]
MIC: 16 µg/mL (≈ 40.6 µM)

O=C(COc1ccc(Cl)cc1)c1ccc(C(=O)Nc2ccc(Cl)cc2C(=O)O)cc1
MIC: 4 µg/mL (≈ 9 µM)

C=CCON=C(c1ccc(C(=O)Nc2ccc(Cl)cc2C(=O)O)cc1)c1ccco1 [drawing 1095]
MIC: 32 µg/mL (≈ 75.3 µM)

O=Cc1ccc(NC(=O)c2cccc(S(=O)(=O)N3CCOCC3)c2)c(C(=O)O)c1 [PHA-666124]
MIC: 32 µg/mL (≈ 76.5 µM)

CC(C)(C)CC(=O)c1cccc(C(=O)Nc2ccc(Cl)cc2C(=O)O)c1 [PHA-656889]
MIC: 16 µg/mL (≈ 42.8 µM)

COc1ccc(C(=O)Nc2ccc(Br)cc2C(=O)O)cc1S(=O)(=O)NCc1ccc(N(C)C)cc1
MIC: > 128 µg/mL

N#Cc1ccc(NC(=O)c2cccc(S(=O)(=O)N3CCC(C#N)(c4ccccc4)CC3)c2)c(C(=O)O)c1 [PHA-571262]
MIC: 32 µg/mL (≈ 62.2 µM)

CC1CCCN1S(=O)(=O)c1ccc(C(=O)Nc2ccc(C#N)cc2C(=O)O)cc1 (stereo not shown) [PHA-656871]
MIC: 128 µg/mL (≈ 310 µM)

O=C(Nc1ccc(Cl)cc1C(=O)O)c1cccc(C(=O)c2ccc3c(c2)OCO3)c1
MIC: 4 µg/mL (≈ 9.44 µM)

O=C(Nc1ccc(Br)cc1C(=O)O)c1ccc(NS(=O)(=O)c2ccccc2)cc1 [PHA-708994]
MIC: 8 µg/mL (≈ 16.8 µM)

O=C(Nc1ccc(-c2cccc([N+](=O)[O-])c2)cc1C(=O)O)c1cccc(S(=O)(=O)N2CCc3cc(Cl)ccc32)c1 [PHA-563275]
MIC: 2 µg/mL (≈ 3.46 µM)

CN(c1ccccc1N)S(=O)(=O)c1cccc(C(=O)Nc2ccc(C#N)cc2C(=O)O)c1 [PHA-670083]
MIC: 0.5 µg/mL (≈ 1.11 µM)

Cl.N#Cc1ccc(NC(=O)c2cccc(SCc3ccncc3)c2)c(C(=O)O)c1 [PHA-569044A]
MIC: 0.5 µg/mL

CCOc1cc(C(=O)Nc2ccc(C#N)cc2C(=O)O)cc(OCC)c1OCC
MIC: 16 µg/mL (≈ 40.2 µM)

Cc1ncsc1CCOc1ccc(C(=O)Nc2ccc(Br)cc2C(=O)O)cc1
MIC: 32 µg/mL (≈ 69.4 µM)

CSc1ccc(C(=O)Nc2ccc(Br)cc2C(=O)O)cc1
MIC: 2 µg/mL (≈ 5.46 µM)

O=C(Nc1ccc(-c2ccc(C(F)(F)F)cc2)cc1C(=O)O)c1cccc(S(=O)(=O)N2CCOCC2)c1 [PHA-610940]
MIC: > 128 µg/mL

O=C(Nc1ccc(Br)cc1C(=O)O)c1ccc(F)c(F)c1
MIC: 32 µg/mL (≈ 89.9 µM)

O=C(Nc1ccc(Br)cc1C(=O)O)c1cccc(SCc2ccncc2)c1 [PHA-502339]
MIC: 2 µg/mL (≈ 4.51 µM)

O=C(Nc1ccc(Br)cc1C(=O)O)c1cccc(OCCN2CCCC2=O)c1
MIC: 32 µg/mL (≈ 71.5 µM)

CCCN(CCC)Sc1ccc(C(=O)Nc2ccc(Cl)cc2C(=O)O)cc1[N+](=O)[O-] [PNU-277231]
MIC: 1 µg/mL (≈ 2.21 µM)

N#Cc1ccc(NC(=O)c2ccc(S(=O)(=O)N3CCCC3CO)cc2)c(C(=O)O)c1 (stereo not shown) [PHA-656868]
MIC: > 128 µg/mL

CC(=O)c1ccc(CC(=O)c2ccc(S(=O)(=O)N3CCc4cc(Cl)ccc43)cc2)c(C(=O)O)c1 [PHA-708922]
MIC: > 128 µg/mL

CN(C)c1ccc(C(=O)Nc2ccc(C#N)cc2C(=O)O)cc1 [PHA-571157]
MIC: 32 µg/mL (≈ 103 µM)

N#Cc1ccc(NC(=O)c2cccc(S(=O)(=O)N3CCN(c4ccc(F)cc4)CC3)c2)c(C(=O)O)c1 [PHA-571230]
MIC: 16 µg/mL (≈ 31.5 µM)

N#Cc1ccc(NC(=S)c2cccc(S(=O)(=O)N3CCOCC3)c2)c(C(=O)O)c1 [PHA-662430]
MIC: 1 µg/mL (≈ 2.32 µM)

O=C(Nc1ccc(Br)cc1C(=O)O)c1cccc(SCc2ccccc2)c1 [PNU-293049]
MIC: 4 µg/mL (≈ 9.04 µM)

CCN(CC)c1ccc(C(=O)Nc2ccc(Br)cc2C(=O)O)cc1
MIC: 32 µg/mL (≈ 81.8 µM)

O=C(Nc1ccc(Br)cc1C(=O)O)c1ccc(OCCNc2ccccc2)cc1
MIC: 64 µg/mL (≈ 141 µM)

Cl.NCc1ccc(C(=O)Nc2ccc(Br)cc2C(=O)O)cc1S(=O)(=O)N1CCc2ccccc21
MIC: > 128 µg/mL

CCOC(=O)Oc1c(OC)cc(C(=O)Nc2ccc(Br)cc2C(=O)O)cc1OC
MIC: 128 µg/mL (≈ 273 µM)

N#Cc1ccc(NC(=O)c2cccc(S(=O)(=O)N3CCN(c4ccccc4)CC3)c2)c(C(=O)O)c1 [PHA-571208]
MIC: 64 µg/mL (≈ 130 µM)

O=C(Nc1ccc([N+](=O)[O-])cc1C(=O)O)c1cccc(C(=O)c2ccccc2)c1 [PHA-519402]
MIC: 0.5 µg/mL (≈ 1.28 µM)

CN(c1ccc(Cl)cc1)S(=O)(=O)c1cccc(C(=O)Nc2ccc(C(F)(F)F)cc2C(=O)O)c1 [PHA-500334]
MIC: 16 µg/mL (≈ 31.2 µM)

O=C(Nc1ccc(-c2ccco2)cc1C(=O)O)c1cccc(S(=O)(=O)N2CCc3cc(Cl)ccc32)c1 [PHA-556663]
MIC: 8 µg/mL (≈ 15.3 µM)

COc1ccc(C(=O)c2ccc(C(=O)Nc3ccc(Cl)cc3C(=O)O)cc2)cc1
MIC: 2 µg/mL (≈ 4.88 µM)

O=C(Nc1ccc(Br)cc1C(=O)O)c1ccc(S(=O)(=O)n2cccc2)cc1 [PNU-291130]
MIC: 4 µg/mL (≈ 8.9 µM)

N#Cc1cccc(C(=O)Nc2ccc(Br)cc2C(=O)O)c1
MIC: > 128 µg/mL

CCSc1ccc(C(=O)Nc2ccc(Br)cc2C(=O)O)cc1
MIC: 0.5 µg/mL (≈ 1.31 µM)

O=C(Nc1ccc(-c2cccs2)cc1C(=O)O)c1cccc(S(=O)(=O)N2CCc3cc(Cl)ccc32)c1 [PHA-556657]
MIC: 2 µg/mL (≈ 3.71 µM)

O=C(Nc1ccc(Cl)cc1C(=O)O)c1ccc(C(=O)C2CCCC2)cc1 [drawing 1111]
MIC: 4 µg/mL (≈ 10.8 µM)

O=C(Nc1ccc(Cl)cc1C(=O)O)c1ccc(SCc2ccccc2)c(Br)c1 [PNU-290882]
MIC: 1 µg/mL (≈ 2.1 µM)

CCCC(Oc1ccc(C(=O)Nc2ccc(Br)cc2C(=O)O)cc1)C(=O)OCC (stereo not shown) [drawing 1091]
MIC: 64 µg/mL (≈ 138 µM)

COC(=O)c1ccc(COc2cccc(C(=O)Nc3ccc(Br)cc3C(=O)O)c2)cc1 [PHA-571283]
MIC: 16 µg/mL (≈ 33 µM)

CCN(Cc1ccncc1)S(=O)(=O)c1cccc(C(=O)Nc2ccc(Br)cc2C(=O)O)c1
MIC: 32 µg/mL (≈ 61.7 µM)

O=C(Nc1ccc(Br)cc1C(=O)O)c1cccc([N+](=O)[O-])c1
MIC: 128 µg/mL (≈ 351 µM)

CCN(CCOc1ccc(C(=O)Nc2ccc(Br)cc2C(=O)O)cc1)c1ccccc1
MIC: 64 µg/mL (≈ 132 µM)

COc1ccc(C(=O)Nc2ccc(C#N)cc2C(=O)O)cc1OC
MIC: 64 µg/mL (≈ 196 µM)

O=C(Nc1ccc(Br)cc1C(=O)O)c1cccc(Cl)c1
MIC: 8 µg/mL (≈ 22.6 µM)

N#Cc1ccc(NC(=O)c2cccc(S(=O)(=O)NC3CCc4ccccc43)c2)c(C(=O)O)c1 (stereo not shown) [PHA-656807]
MIC: 64 µg/mL (≈ 139 µM)

CC(C(O)c1ccccc1)N(C)S(=O)(=O)c1ccc(C(=O)Nc2ccc(C#N)cc2C(=O)O)cc1 (stereo not shown) [PHA-571242]
MIC: 32 µg/mL (≈ 64.8 µM)

O=C(Nc1ccc(Br)cc1C(=O)O)c1ccc(S(=O)(=O)Nc2ccc3c(c2)OCCO3)cc1
MIC: 16 µg/mL (≈ 30 µM)

O=C(Nc1ccc(Cl)cc1C(=O)O)c1cccc(C(=O)C2CCC2)c1 [PHA-656888]
MIC: 16 µg/mL (≈ 44.7 µM)

O=C(Nc1cccc(C(=O)Nc2ccc(Br)cc2C(=O)O)c1)c1ccc2c(c1)OCO2 [PHA-708983]
MIC: 32 µg/mL (≈ 66.2 µM)

O=C(Nc1ccccc1)Nc1cccc(C(=O)Nc2ccc(Br)cc2C(=O)O)c1 [PHA-708988]
MIC: 32 µg/mL (≈ 70.4 µM)

N#Cc1ccc(C(=O)Nc2ccc(Br)cc2C(=O)O)cc1S(=O)(=O)N1CCc2ccccc21 [PNU-293905]
MIC: 8 µg/mL (≈ 15.2 µM)

O=C(Nc1ccc(Br)cc1C(=O)O)c1ccc(Br)c(S(=O)(=O)NC2Cc3ccccc3C2)c1
MIC: 64 µg/mL (≈ 108 µM)

COC(=O)CCCC(=O)c1ccc(NC(=O)c2cccc(S(=O)(=O)N3CCSC3)c2)c(C(=O)O)c1
MIC: > 128 µg/mL

CC1CC(S(=O)(=O)c2cccc(C(=O)Nc3ccc(C#N)cc3C(=O)O)c2)CC(C)O1 (stereo not shown)
MIC: 16 µg/mL (≈ 36.2 µM)

O=C(Nc1ccc(-c2ccccc2)cc1C(=O)O)c1cccc(S(=O)(=O)N2CCc3cc(Cl)ccc32)c1 [PHA-557035]
MIC: 4 µg/mL (≈ 7.5 µM)

N#Cc1ccc(NC(=O)c2cccc(S(=O)(=O)N3CCCCC3)c2)c(C(=O)O)c1 [PHA-564750]
MIC: 0.25 µg/mL (≈ 0.605 µM)

CCCCN(CC#N)S(=O)(=O)c1cccc(C(=O)Nc2ccc(C#N)cc2C(=O)O)c1 [PHA-571237]
MIC: 16 µg/mL (≈ 36.3 µM)

CN(c1ccc(Cl)cc1)S(=O)(=O)c1cc(Br)cc(C(=O)Nc2ccc(Br)cc2C(=O)O)c1 [PHA-631082]
MIC: 0.25 µg/mL (≈ 0.415 µM)

N#Cc1ccc(NC(=O)c2cccc(S(=O)(=O)N3CCCC4CCCCC43)c2)c(C(=O)O)c1 (stereo not shown) [PHA-571235]
MIC: 8 µg/mL (≈ 17.1 µM)

CS(=O)(=O)c1cccc(C(=O)Nc2ccc(Br)cc2C(=O)O)c1 [PHA-513541]
MIC: 64 µg/mL (≈ 161 µM)

Cc1ccccc1-c1ccc(NC(=O)c2cccc(S(=O)(=O)N3CCc4cc(Cl)ccc43)c2)c(C(=O)O)c1 [PHA-568205]
MIC: 2 µg/mL (≈ 3.66 µM)

COc1ccc2ccn(S(=O)(=O)c3cccc(C(=O)Nc4ccc(C#N)cc4C(=O)O)c3)c2c1 [PHA-568424]
MIC: 1 µg/mL (≈ 2.1 µM)

O=C(Nc1ccc(Cl)cc1C(=O)O)c1ccc(C(=O)c2ccc(Cl)cc2)cc1
MIC: 4 µg/mL (≈ 9.66 µM)

CN(CCc1ccccc1)S(=O)(=O)c1cccc(C(=O)Nc2ccc(C#N)cc2C(=O)O)c1 [PHA-571215]
MIC: 8 µg/mL (≈ 17.3 µM)

CC(C)N(Cc1ccccc1)S(=O)(=O)c1ccc(C(=O)Nc2ccc(C#N)cc2C(=O)O)cc1 [PHA-571205]
MIC: 32 µg/mL (≈ 67 µM)

N#Cc1ccc(NC(=O)c2ccc(S(=O)(=O)N(CCO)Cc3ccccc3)cc2)c(C(=O)O)c1 [PHA-656862]
MIC: 32 µg/mL (≈ 66.7 µM)

O=C(Nc1ccc(Cl)cc1C(=O)O)c1cc(Br)cc(S(=O)(=O)N2CCc3ccccc32)c1 [PHA-570949]
MIC: 1 µg/mL (≈ 1.87 µM)

O=C(Nc1ccc(Br)cc1C(=O)O)c1cccc(C(=NO)c2ccccc2)c1 [drawing 1035]
MIC: 0.5 µg/mL (≈ 1.14 µM)

N#Cc1ccc(NC(=O)c2ccc(S(=O)(=O)NC3CCc4ccccc43)cc2)c(C(=O)O)c1 (stereo not shown) [PHA-656866]
MIC: > 128 µg/mL

O=C(Nc1ccc(C(=O)Nc2ccc(Br)cc2C(=O)O)cc1)c1ccc(Cl)nc1 [PHA-713390]
MIC: > 128 µg/mL

O=C(Nc1ccc(Br)cc1C(=O)O)c1cccc(NC(=O)c2ccco2)c1 [PHA-708978]
MIC: 32 µg/mL (≈ 74.6 µM)
